Experimental data from patent US4772606A, “Purine derivatives” (Warner-Lambert Company, priority 1985, dated 1988).
pIC50: −log10 of the molar value. Structures can show the parent of a compound that is named as a salt. Where two headings read alike, the source gives them in different places.

Assays:
[1] = molecular target: T1, purine nucleoside phosphorylase (PNP-4) (Homo sapiens, UniProt P00491); experiment: purine nucleoside phosphorylase (PNP-4) enzyme assay, radiochemical, formation of [14C]-hypoxanthine from [14C]inosine; format: biochemical; conditions: erythrocyte enzyme; [14C]inosine substrate
T1 construct: using hyman erythrocyte as the enzyme source; from tissue; host or cells: human erythrocytes
T1 sequence (P00491 1-289): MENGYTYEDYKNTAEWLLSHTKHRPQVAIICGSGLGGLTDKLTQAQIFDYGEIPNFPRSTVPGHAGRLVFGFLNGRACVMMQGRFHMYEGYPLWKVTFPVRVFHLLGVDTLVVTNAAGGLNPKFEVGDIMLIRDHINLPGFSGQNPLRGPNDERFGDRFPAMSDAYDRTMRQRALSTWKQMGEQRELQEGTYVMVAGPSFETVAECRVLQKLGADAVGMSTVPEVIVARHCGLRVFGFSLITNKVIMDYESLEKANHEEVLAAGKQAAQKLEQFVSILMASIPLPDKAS

T-Cell = experiment: HTBA-1 T-cell cytotoxicity in the presence of 2'-deoxyguanosine; format: cell-based; conditions: read-out: HTBA-1 T-Cell +dGuo (10 μM) IC50

| Structure (SMILES) | pIC50 [1] | pIC50 (T-Cell) | pIC50 (T-Cell; +dGuo (10 μM)) |
| --- | --- | --- | --- |
| Nc1nc2c(nc(N)n2Cc2cccs2)c(=O)[nH]1 [2 or 9a] | 6.77 | 6.08 |  |
| Nc1nc2c(ncn2Cc2cccnc2)c(=O)[nH]1 [Example 1, 9-[(3-Pyridinyl)methyl]guanine] | 4.66 |  | 4.27 |
| CCc1ccc(Cn2cnc3c(=O)[nH]c(N)nc32)s1 [Example 3, 9-[(5-Ethyl-2-thienyl)methyl]guanine] | 6.03 |  | 5.38 |
| Nc1nc2c(nc(N)n2Cc2ccco2)c(=O)[nH]1 [Example 9b, 8-Amino-9-(2-furanylmethyl)guanine monohydrochloride] | 6.60 | 5.59 |  |
| Nc1nc2c(nc(N)n2Cc2ccsc2)c(=O)[nH]1 [Example 9c, 8-Amino-9-[(3-thienyl)methyl]guanine, monohydrochloride, monohydrate] | 7.07 |  | 6.31 |
| Cc1ccsc1Cn1c(N)nc2c(=O)[nH]c(N)nc21 [Example 9d, 8-Amino-9-[(3-methyl-2-thienyl)methyl]guanine] | 5.39 |  | 5.07 |
| Nc1nc2c(nc(N)n2Cc2csc3ccccc23)c(=O)[nH]1 [Example 9e, 8-Amino-9-[(benzo[b]thien-3-yl)methyl]guanine] | 3.85 |  |  |

Now from value to compound, other results behind:

| pIC50 [1] | Structure (SMILES) | pIC50 (T-Cell) | pIC50 (T-Cell; +dGuo (10 μM)) |
| --- | --- | --- | --- |
| 5.20 | Nc1nc2c(nc(N)n2CCc2cccs2)c(=O)[nH]1 [Example 16Ac] |  | 4.75 |
| 5.76 | Cc1sccc1Cn1c(N)nc2c(=O)[nH]c(N)nc21 [Example 16Ad] |  | 4.74 |
| 5.34 | Nc1nc2c(nc(N)n2Cc2ccccn2)c(=O)[nH]1 [Example 16Af] |  |  |
| 5.07 | Nc1nc2c(nc(N)n2Cc2cc3ccccc3s2)c(=O)[nH]1 [Example 16Ag] |  | < 4.90 |
| 6.20 | Cc1cc(Cn2c(N)nc3c(=O)[nH]c(N)nc32)cs1 [Example 16Ak] |  | 5.55 |
